Data on 7 compounds can be found in patent US4221787A, “Esteramide prodrugs of anti-inflammatory corticosteroids” (INTERx Research Corporation, priority 1979, dated 1980).

Data set [1] relates to burned rat ear. Kind of data set: Effect of selected steroid derivatives on ear burn inflammation. The class given is in vivo, Sprague-Dawley rats. Conditions: 0.03 M steroid in isopropyl myristate, rat ear burned at 51.7° C. for 10 seconds, ears weighed after 16 hours, 5 rats. As to the method: The pressure of the cylinder on the rat ear was reproduced by using only the weight of the top brass cylinder (2.5 lbs) to apply the pressure. The burned rat ear was then immediately treated on both sides with […] of vehicle (isopropyl myristate) or 0.03 M steroid in the vehicle. After 16 hours, both ears of the rat were removed along anatomical guidelines and weighed.
The increase of weight caused by the burn was determined by subtracting the weight of the untreated left ear from the weight of the treated right ear.
The percent inhibition of inflammation was then determined as the weight increase of burned rat ears treated only with vehicle minus the weight increase of burned rat ears treated with vehicle containing the steroid divided by the weight increase of burned rat ears treated only with vehicle times one hundred.

Data set [2] has as its system mouse skin. The note with it: in vivo.
Experimental: Effect of Selected Steroid Derivatives on Skin Thickness A modification of the method of Smith et al, Arch Derrmatol, 112, 1115 (1976), was used. Hairless mice were used instead of rats. The steroids were tested at 0.03 M in propyleneglycol suspension except for hydrocortisone 17-butyrate which was soluble. Each suspension (50 μl) was applied to the backs of 9 mice daily. On the twenty-ninth day of the experiment, the mice were sacrificed with carbon dioxide and the double fold skin thickness was immediately measured using an Ames micrometer accurate to 0.0001 inch at a pressure of 28 lb/cm^2. The measurement was taken after three minutes had elapsed from the time the mouse skin was placed in the micrometer.
The test system of data set [3] is thymus glands. Kind of data set: Effect of selected steroid derivatives on thymus weight (systemic effect). It is filed as in vivo, Sprague-Dawley rats. The note with it: 48 hours after burn and application of 0.03 M steroid in isopropyl myristate; lower weight = more pronounced systemic effect; Control 233.5 ± 11.5. As to the method:
A modification of the method of Tonelli et al, Endocrinology, 77, 625 (1965), was used. […] The rats were first anesthetized with phenobarbitol, then the right ear of each rat was burned on both side for 10 seconds between two vertically oriented brass cylinders heated with water at 51.7° C. from a constant temperature bath. The pressure of the cylinder on the rat ear was reproduced by using only the weight of the top brass cylinder (2.5 lbs) to apply the pressure. The burned rat ear was then immediately treated on both sides with […] of vehicle (isopropyl myristate) or 0.03 M steroid in the vehicle. After 16 hours, both ears of the rat were removed along anatomical guidelines and weighed.
Effect of Selected Steroid Derivatives on Thymus Weight
The rats used in the ear burn test described in Example 18 were revived and 48 hours after the burn and application of the steroid, they were sacrificed with carbon dioxide. Then their thymus glands were removed and weighed. The lower the weight of thymus, the more pronounced the systemic effect of the steroid.

In the case of `C[C@]12CCC(=O)C=C1CC[C@@H]1[C@@H]2[C@@H](O)C[C@@]2(C)[C@H]1CC[C@]2(O)C(=O)COC(=O)[C@@H]1CCC(=O)N1` [4-Pregnene-11β,17α-dihydroxy-21-(2'-oxopyrrolidin-5'-yl)carbonyloxy-3,20-dione], in data set [1], the “% Inhibition (of ear burn inflammation)” value was determined as 50.5%.
On to `CCN(CC)C(=O)CCC(=O)OCC(=O)[C@@]1(O)CC[C@H]2[C@@H]3CCC4=CC(=O)CC[C@]4(C)[C@H]3[C@@H](O)C[C@@]21C` [4-Pregnene-11β,17α-dihydroxy-21-(N,N-diethylsuccinamyloxy)-3,20-dione], for which the “% Inhibition (of ear burn inflammation)” value in data set [1] worked out at 49.2%. For the same compound, in data set [2], the “% Decrease from Control (double fold skin thickness)” value is 26.7%.
In the case of `CCCC(=O)O[C@]1(C(=O)COC(=O)CCC(=O)N(CC)CC)CC[C@H]2[C@@H]3CCC4=CC(=O)CC[C@]4(C)[C@H]3[C@@H](O)C[C@@]21C` [4-Pregnene-11β-Hydroxy-17α-butyryloxy-21-(N,N-diethylsuccinamyloxy)-3,20-dione], the “% Inhibition (of ear burn inflammation)” value in data set [1] came to 20.4%.
Regarding `CCCC(=O)O[C@]1(C(=O)CO)CC[C@H]2[C@@H]3CCC4=CC(=O)CC[C@]4(C)[C@H]3[C@@H](O)C[C@@]21C` [Hydrocortisone 17-butyrate], the “% Inhibition (of ear burn inflammation)” value in data set [1] is 28.9%. Moreover, in data set [3], the “Thymus Weight” value came to 149.6 ± 11.7 mg. For the same compound, the “% Decrease from Control (double fold skin thickness)” value in data set [2] was 39.2%.
On to `CC(=O)OCC(=O)[C@@]1(O)CC[C@H]2[C@@H]3CCC4=CC(=O)CC[C@]4(C)[C@H]3[C@@H](O)C[C@@]21C` [Hydrocortisone 21-acetate], for which the “% Inhibition (of ear burn inflammation)” value in data set [1] is reported as 31.0%. Besides, the “Thymus Weight” value in data set [3] stood at 177.2 ± 11.0 mg. Besides, the “% Decrease from Control (double fold skin thickness)” value in data set [2] was found to be 37.5%.
With `C[C@]12CCC(=O)C=C1CC[C@@H]1[C@@H]2[C@@H](O)C[C@@]2(C)[C@H]1CC[C@]2(O)C(=O)CO` [Hydrocortisone], in data set [1], the “% Inhibition (of ear burn inflammation)” value is 3.3%. Further, the “Thymus Weight” value in data set [3] was 190.3 ± 29.7 mg.
Take `CC1(C)O[C@@H]2C[C@H]3[C@@H]4CCC5=CC(=O)C=C[C@]5(C)[C@@]4(F)[C@@H](O)C[C@]3(C)[C@]2(C(=O)CO)O1` [Triamcinolone acetonide]: the “% Inhibition (of ear burn inflammation)” value in data set [1] was found to be 53.8%. The “Thymus Weight” value in data set [3] is given as 65.3 ± 8.1 mg. For the same compound, in data set [2], the “% Decrease from Control (double fold skin thickness)” value stood at 45.8%.
